# From US10358454B2, “Marinopyrrole derivatives and methods of making and using same” (H. LEE MOFFITT CANCER CENTER AND RESEARCH INSTITUTE, INC., priority 2014, dated 2019)
# Like-named read-outs stand apart in the source and are kept apart here.
# Experiments:
# [1] = system: human breast cancer MDA-MB-468 cells; assay: Western blotting of MDA-MB-468 cells treated with marinopyrrole derivatives (Mcl-1, Bim, caspase 3); type: cell-based; details: 10 μM for 16 h
# Experimental: The cells were then processed for western blotting according to a previously described methods (Balasis M E et al. Clin. Cancer Res. 2011, 17, 2852-2862). […] However, none of the cyclic marinopyrroles were active in intact cells.
# (§1) ELISAs were performed using a modified version of a previously described procedure (Doi K et al. J. Biol. Chem. 2012, 287, 10224-10235). Briefly, 40 nM of biotinylated Bim BH3 peptide (Biomatik) in SuperBlock blocking buffer (Pierce) was incubated in high-binding capacity streptavidin-coated plates (Pierce) for 2 h. Compounds were diluted in 120 μl of PBS containing 10 nM of GST-Mcl-1 or GST-Bcl-xL in 1.5 mL tubes for 15 min. Wells were washed with wash buffer (PBS containing 0.05% Tween-20) and then 100 μL of the compound/GST-protein mixture was transferred to the wells. The plates were incubated for 2 h, and then the wells were washed with wash buffer. HRP-conjugated anti-GST antibody (Bethyl Laboratories) was diluted 1:2000 in SuperBlock and 100 μL was transferred to each well. The plate was incubated for 1 h, and then the wells were washed with wash buffer followed by PBS. 100 μL of SureBlue TMB Microwell Peroxidase Substrate (VWR) was added to each well and plates were developed for 5-10 min. 100 μL of 1 N HCl was added to each well to stop the reaction and absorbance was read at 450 nm using a μQuant plate reader (Bio-Tek).
# Mcl-1/Bim = Mcl-1/Bim (Homo sapiens, UniProt Q07820); assay: Mcl-1/Bim ELISA (GST-Mcl-1 binding to biotinylated Bim BH3 peptide); details: for fold more potent than (±)-1 (1) against Mcl-1/Bim: relative to (±)-1
# Experimental: as §1
# (§2) ELISAs were performed using a similar procedure as previously described (Doi K, et al. J. Biol. Chem. 2012, 287, 10224-10235). Briefly, 40 nM of biotinylated Bim BH3 peptide (Biomatik) in SuperBlock blocking buffer (Pierce) was incubated in high-binding capacity streptavidin-coated plates (Pierce) for 2 h. Compounds were diluted in 120 μl of PBS containing 10 nM of GST-Mcl-1 or GST-Bcl-xL in 1.5 mL tubes for 15 min. Wells were washed with wash buffer (PBS containing 0.05% Tween-20) and then 100 μL of the compound/GST-protein mixture was transferred to the wells. The plates were incubated for 2 h, and then wells were washed with wash buffer. HRP-conjugated anti-GST antibody (Bethyl Laboratories) was diluted 1:2000 in SuperBlock and 100 μL was transferred to each well. The plate was incubated for 1 h, and then wells were washed with wash buffer followed by PBS. 100 μL of SureBlue TMB Microwell Peroxidase Substrate (VWR) was added to each well and plates were developed for 5-10 min. 100 μL of 1 N HCl was added to each well to stop the reaction and absorbance was read at 450 nm using μQuant plate reader (Bio-Tek).
# Bcl-xL/Bim = Bcl-xL/Bim (Homo sapiens, UniProt Q07817); assay: Bcl-xL/Bim ELISA (GST-Bcl-xL binding to biotinylated Bim BH3 peptide); details: for fold more potent than (±)-1 (1) against Bcl-xL/Bim: relative to (±)-1
# Experimental: as §1, §2
# [2] = Table 3-A structure I, Bcl-xL at 10 nM, n ≥ 3, read-out: Bcl-xL-Bim IC50 (average ± SEM)
# [3] = read-out: IC50 to inhibit Bcl-xL/Bim binding
# [4] = Table 1, Mcl-1 at 10 nM, n ≥ 3, read-out: Mcl-1-Bim IC50 (average ± SEM)
# [5] = Table 1, Bcl-xL at 10 nM, n ≥ 3, read-out: Bcl-xL-Bim IC50 (average ± SEM)
# [6] = Table 2-B, n ≥ 3, read-out: Mcl-1/Bim IC50 (average ± SEM)
# [7] = Table 3-C structure IV, n ≥ 3, read-out: Mcl-1-Bim IC50 (average ± SEM)
# [8] = Table 2-B, n ≥ 3 unless specified, read-out: Bcl-xL/Bim IC50 (average ± SEM)
# [9] = Table 3-C structure IV, n ≥ 3 (IV-1: n = 2), read-out: Bcl-xL-Bim IC50 (average ± SEM)
# Chain of Bcl-xL/Bim (Q07817 whole entry): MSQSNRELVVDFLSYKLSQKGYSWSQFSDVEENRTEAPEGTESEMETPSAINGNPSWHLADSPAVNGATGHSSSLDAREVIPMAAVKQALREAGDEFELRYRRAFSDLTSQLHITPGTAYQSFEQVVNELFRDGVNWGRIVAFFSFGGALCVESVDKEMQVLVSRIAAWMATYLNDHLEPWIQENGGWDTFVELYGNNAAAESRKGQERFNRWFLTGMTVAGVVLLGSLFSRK
# Chain of Mcl-1/Bim (Q07820 whole entry): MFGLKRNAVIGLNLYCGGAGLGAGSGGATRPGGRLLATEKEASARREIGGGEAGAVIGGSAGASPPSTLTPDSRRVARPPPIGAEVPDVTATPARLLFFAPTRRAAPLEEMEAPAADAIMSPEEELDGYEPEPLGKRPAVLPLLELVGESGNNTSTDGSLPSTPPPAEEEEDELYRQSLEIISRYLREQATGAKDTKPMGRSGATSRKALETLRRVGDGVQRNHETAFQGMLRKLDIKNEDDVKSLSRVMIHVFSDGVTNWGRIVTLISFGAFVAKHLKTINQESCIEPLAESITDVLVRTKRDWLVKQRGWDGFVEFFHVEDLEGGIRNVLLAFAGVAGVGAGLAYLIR
IC50 (Bcl-xL/Bim; [3]),IC50 (Mcl-1/Bim; [4]),IC50 (Bcl-xL/Bim; [5]),Compound,effect on levels of Mcl-1 and Bim and cleavage of caspase 3 [1],IC50 (Mcl-1/Bim; [6]),IC50 (Mcl-1/Bim; [7]),IC50 (Bcl-xL/Bim; [8]),IC50 (Bcl-xL/Bim; [9]),other results
–,1.4 ± 0.3 µM,2.3 ± 1.1 µM,"O=C1c2ccc(OS(=O)(=O)C(F)(F)F)cc2Oc2c(Cl)cc(C(=O)c3ccc(OS(=O)(=O)C(F)(F)F)cc3O)n2-c2c1[nH]c(Cl)c2Cl [IV-1, 3-Hydroxy-4-(2,3,7-trichloro-13-oxo-10-(((trifluoromethyl)sulfonyl)oxy)-1,13 dihydrobenzo[g]di-pyrrolo[2,1-b:3′,2′-d][1,3]oxazocine-5-carbonyl)phenyl trifluoromethanesulfonate]",–,–,–,–,–,fold more potent than (±)-1 (1) against Mcl-1/Bim (Mcl-1/Bim): six; fold more potent than (±)-1 (1) against Bcl-xL/Bim (Bcl-xL/Bim): seven-fold
–,42.5 ± 6 µM,> 100 µM,"O=C1c2ccc(O)cc2Oc2c(Cl)cc(C(=O)c3ccc(O)cc3O)n2-c2c1[nH]c(Cl)c2Cl [IV-2, 2,3,7-Trichloro-5-(2,4-dihydroxybenzoyl)-10-hydroxybenzo[g]dipyrrolo[2,1-b:3′,2′-d][1,3]oxazo-cin-13(1H)-one]",–,8 ± 1.6 µM,8 ± 1.6 µM,9.5 ± 2.2 µM,9.5 ± 2.2 µM,selectivity profile Mcl-1 vs Bcl-xL in words (Mcl-1/Bim; from Mcl-1/Bim and Bcl-xL/Bim ELISA): dual Mcl-1 and BclxL antagonists
> 100 µM,> 100 µM,> 100 µM,"O=C1c2ccc(P(=O)(O)O)cc2Oc2c(Cl)cc(C(=O)c3ccc(P(=O)(O)O)cc3O)n2-c2c1[nH]c(Cl)c2Cl [IV-6, 3-Hydroxy-4-(2,3,7-trichloro-13-oxo-10-phosphoryl-1,13-dihydrobenzo[g]dipyrrolo[2,1-b:3′,2′-d][1,3]oxazocine-5-carbonyl) phosphonic acid]",–,–,–,–,–,IC50 (Mcl-1/Bim; read-out: IC50 to inhibit the binding of Mcl-1 to Bim): > 100 µM

# The next lines start with the molecule.
Compound,IC50 (Bcl-xL/Bim; [3]),IC50 (Mcl-1/Bim; [4]),IC50 (Bcl-xL/Bim; [5]),effect on levels of Mcl-1 and Bim and cleavage of caspase 3 [1],IC50 (Mcl-1/Bim; [6]),IC50 (Mcl-1/Bim; [7]),IC50 (Bcl-xL/Bim; [8]),IC50 (Bcl-xL/Bim; [9]),other results
"O=C(c1ccccc1O)c1[nH]c(Cl)c(Cl)c1-n1c(C(=O)c2ccccc2O)cc(Cl)c1Cl (single isomer, unassigned) [(−)-1, reference compound]",–,–,–,able to decrease Mcl-1 and Bim and to cleave caspas 3,–,–,–,–,–
"COC(=O)c1ccc(C(=O)c2[nH]c(Cl)c(Cl)c2-n2c(C(=O)c3ccc(C(=O)OC)cc3O)cc(Cl)c2Cl)c(O)c1 [Compound I-17, Dimethyl-4,4′-(4,4′,5,5′-tetrachloro-1′H-[1,3′-bipyrrole]-2,2′-dicarbonyl)bis(3-hydroxybenzoate)]",> 100 µM,–,–,"significant decrease in the levels of Mcl-1 and Bim, and cleavage of caspase 3",–,–,–,–,"activity against Mcl-1/Bim in words (Mcl-1/Bim): showed activity; IC50 (Mcl-1/Bim; Table 3-A structure I, Mcl-1 at 10 nM, n ≥ 3, read-out: Mcl-1-Bim IC50 (average ± SEM)): 16.9 ± 2.3 µM; IC50 (Bcl-xL/Bim; [2]): > 100 µM"
"CCOP(=O)(OCC)c1ccc(C(=O)c2[nH]c(Cl)c(Cl)c2-n2c(C(=O)c3ccc(P(=O)(OCC)OCC)cc3O)cc(Cl)c2Cl)c(O)c1 [Compound I-19, tetraethyl((4,4′,5,5′-tetrachloro-1′H-[1,3′-bipyrrole]-2,2′-dicarbonyl)bis(3-hydroxy-4,1-phenylene))bis(phosphonate)]",> 100 µM,–,–,"little effect on Mcl-1, Bim or caspase 3",–,–,–,–,IC50 (Mcl-1/Bim; read-out: Mcl-1-Bim IC50 (average ± SEM)): 7.7 ± 2.2 µM; IC50 (Bcl-xL/Bim; [2]): > 100 µM
"COC(=O)c1ccc(C(=O)c2cc(Cl)c3n2-c2c([nH]c(Cl)c2Cl)C(=O)c2ccc(C(=O)OC)cc2O3)c(O)c1 [IV-3, Methyl-2,3,7-trichloro-5-(2-hydroxy-4-(methoxycarbonyl)benzoyl)-13-oxo-1,13-dihydrobenzo[g]-dipyrrolo[2,1-b:3′,2′-d][1,3]oxazocine-10-carboxylate]",–,4.3 ± 1.5 µM,3.4 ± 0.9 µM,–,4.1 ± 1.4 µM,4.1 ± 1.4 µM,10.1 ± 2.2 µM,10.1 ± 2.2 µM,fold more potent than (±)-1 (1) against Mcl-1/Bim (Mcl-1/Bim): two-fold; activity against Bcl-xL/Bim in words (Bcl-xL/Bim): slight increase in potency; fold more potent than (±)-1 (1) against Bcl-xL/Bim (Bcl-xL/Bim): seven-fold
"O=C(O)c1ccc(C(=O)c2cc(Cl)c3n2-c2c([nH]c(Cl)c2Cl)C(=O)c2ccc(C(=O)O)cc2O3)c(O)c1 [IV-4, 5-(4-Carboxy-2-hydroxybenzoyl)-2,3,7-trichloro-13-oxo-1,13-dihydrobenzo[g]dipyrrolo[2,1-b:3′,2′-d][1,3]oxazocine-10-carboxylic acid]",–,66.6 ± 2.6 µM,> 100 µM,–,3.9 ± 1.1 µM,3.9 ± 1.1 µM,18.3 ± 3 µM,18.3 ± 3 µM,–
